According to ChEMBL document CHEMBL1130898, “4-Alkylpiperidines related to SR-48968: potent antagonists of the neurokinin-2 (NK2) receptor” (Bioorg Med Chem Lett, 1998):

Key:
Substance-K receptor = molecular target: T1, Substance-K receptor (Homo sapiens, UniProt P21452); assay: Displacement of [3H]- NKA from human NK-2 receptor expressed in MEL cells; type: cell-based
T1 sequence (P21452 whole entry): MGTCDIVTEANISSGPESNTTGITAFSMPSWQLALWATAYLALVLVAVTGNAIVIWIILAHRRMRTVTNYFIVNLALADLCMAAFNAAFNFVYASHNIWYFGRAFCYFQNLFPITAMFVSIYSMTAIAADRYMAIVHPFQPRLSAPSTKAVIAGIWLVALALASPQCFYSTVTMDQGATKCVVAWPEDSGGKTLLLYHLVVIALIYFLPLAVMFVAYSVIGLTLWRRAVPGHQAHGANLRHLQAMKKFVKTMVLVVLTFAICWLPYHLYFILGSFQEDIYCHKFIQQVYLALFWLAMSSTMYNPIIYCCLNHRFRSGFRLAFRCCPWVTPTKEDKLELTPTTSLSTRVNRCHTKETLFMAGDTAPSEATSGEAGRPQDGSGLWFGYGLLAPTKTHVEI

[1] = molecular target: T2, Substance-K receptor (Cavia porcellus) (UniProt Q64077); assay: Inhibition of [beta-Ala]NKA(4-10)-induced contraction of isolated guinea pig trachea; type: functional, tissue-based
T2 sequence (whole entry): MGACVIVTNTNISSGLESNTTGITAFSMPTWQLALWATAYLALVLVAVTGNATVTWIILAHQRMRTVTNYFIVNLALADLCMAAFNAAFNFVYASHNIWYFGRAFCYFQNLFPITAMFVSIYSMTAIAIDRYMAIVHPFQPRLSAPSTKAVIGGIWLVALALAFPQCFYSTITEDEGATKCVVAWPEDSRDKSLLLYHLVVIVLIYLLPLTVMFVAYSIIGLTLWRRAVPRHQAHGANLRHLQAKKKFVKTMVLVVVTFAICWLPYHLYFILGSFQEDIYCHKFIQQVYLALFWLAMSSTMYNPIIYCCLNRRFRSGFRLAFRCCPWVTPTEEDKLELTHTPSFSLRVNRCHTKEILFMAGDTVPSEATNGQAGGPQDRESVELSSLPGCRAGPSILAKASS

Cavia porcellus [2] = assay: Compound was administered perorally (po) and evaluated for oral activity in neurokinin A-induced guinea pig dyspnea model at 5 umol/kg dose; type: functional
Cavia porcellus [3] = assay: Compound was administered intravenously and evaluated for activity against neurokinin A-induced guinea pig dyspnea model; type: functional; details: iv
Cavia porcellus [4] = assay: Compound was administered perorally and evaluated for oral activity in neurokinin A-induced guinea pig dyspnea model.; type: functional
Cavia porcellus [5] = assay: Compound was administered perorally and evaluated for oral activity in neurokinin A-induced guinea pig dyspnea model at 5 umol/Kg dose; type: functional

Ki (Substance-K receptor) | pKB [1] | Structure (SMILES) | inhibition in vivo at 5 µmol/kg (Cavia porcellus [2]) | ED50 (Cavia porcellus [3]) | ED50 (Cavia porcellus [4]) | inhibition in vivo at 5 µmol/kg (Cavia porcellus [5])
2.1 nM | 8.8 | CC/C(=N/O)C1CCN(CCC(CN(C)C(=O)c2ccccc2)c2ccc(Cl)c(Cl)c2)CC1 (stereo unspecified) |  |  |  | 
66 nM | 7.9 | CC(=O)NCCC1CCN(CCC(CN(C)C(=O)c2ccccc2)c2ccc(Cl)c(Cl)c2)CC1 (stereo unspecified) |  |  |  | 
1.3 nM | 8.8 | CC/C(=N\O)C1CCN(CCC(CN(C)C(=O)c2ccccc2)c2ccc(Cl)c(Cl)c2)CC1 (stereo unspecified) | 20% |  |  | 
2.7 nM | 9.1 | CCC(=NO)C1CCN(CCC(CN(C)C(=O)c2ccccc2)c2ccc(Cl)c(Cl)c2)CC1 (stereo unspecified) |  |  |  | 
 | 9.1 | CC(=O)NC1(c2ccccc2)CCN(CCC(CN(C)C(=O)c2ccccc2)c2ccc(Cl)c(Cl)c2)CC1 (stereo in doubt; 1) [listing 1 of 2 here] |  |  |  | 
4.7 nM | 8.4 | CCCC(O)(CCC)C1CCN(CCC(CN(C)C(=O)c2ccccc2)c2ccc(Cl)c(Cl)c2)CC1 (stereo unspecified) |  | 0.54 µmol/kg | 1.4 µmol/kg | 
9.2 nM | 8.6 | CCC(=O)C1CCN(CCC(CN(C)C(=O)c2ccccc2)c2ccc(Cl)c(Cl)c2)CC1 (stereo unspecified) |  |  |  | 
1.75 nM |  | CC(=O)NC1(c2ccccc2)CCN(CCC(CN(C)C(=O)c2ccccc2)c2ccc(Cl)c(Cl)c2)CC1 (stereo in doubt; 2) [listing 1 of 2 here] |  |  |  | 
0.84 nM | 8.1 | CCC(O)(CC)C1CCN(CC[C@H](CN(C)C(=O)c2ccccc2)c2ccc(Cl)c(Cl)c2)CC1 |  | 0.4 µmol/kg | 3.49 µmol/kg | 
7.7 nM | 7.5 | CN(CC(CCN1CCC(C(C)(C)O)CC1)c1ccc(Cl)c(Cl)c1)C(=O)c1ccccc1 (stereo unspecified) |  |  |  | 
3.5 nM | 8.8 | CCC(O)(CC)C1CCN(CCC(CN(C)C(=O)c2ccccc2)c2ccc(Cl)c(Cl)c2)CC1 (stereo unspecified) | 63% |  |  | 
9.9 nM | 7.5 | CCCC1CCN(CCC(CN(C)C(=O)c2ccccc2)c2ccc(Cl)c(Cl)c2)CC1 (stereo unspecified) |  |  |  | 
142 nM | 8 | CN(CC(CCN1CCC(CO)CC1)c1ccc(Cl)c(Cl)c1)C(=O)c1ccccc1 (stereo unspecified) |  |  |  | 13%
 | 9.2 | CC(=O)NC1(c2ccccc2)CCN(CCC(CN(C)C(=O)c2ccccc2)c2ccc(Cl)c(Cl)c2)CC1 (stereo in doubt; 2) [listing 2 of 2 here] |  |  |  | 
0.6 nM |  | CC(=O)NC1(c2ccccc2)CCN(CCC(CN(C)C(=O)c2ccccc2)c2ccc(Cl)c(Cl)c2)CC1 (stereo in doubt; 1) [listing 2 of 2 here] |  |  | 1.97 µmol/kg | 
33.5 nM | 7.8 | CC(O)C1CCN(CCC(CN(C)C(=O)c2ccccc2)c2ccc(Cl)c(Cl)c2)CC1 (stereo unspecified) |  |  |  | 
 | 7.8 | CC(=O)OCCC1CCN(CCC(CN(C)C(=O)c2ccccc2)c2ccc(Cl)c(Cl)c2)CC1 (stereo unspecified) |  |  |  | 
47 nM | 8.3 | CN(CC(CCN1CCC(CCO)CC1)c1ccc(Cl)c(Cl)c1)C(=O)c1ccccc1 (stereo unspecified) |  |  |  | 7%
13.1 nM | 7.9 | CCC(O)C1CCN(CCC(CN(C)C(=O)c2ccccc2)c2ccc(Cl)c(Cl)c2)CC1 (stereo unspecified) |  |  |  | 
6.5 nM | 7.6 | CC/C(=N\OC)C1CCN(CCC(CN(C)C(=O)c2ccccc2)c2ccc(Cl)c(Cl)c2)CC1 (stereo unspecified) |  |  |  | 
3.7 nM | 7.5 | CCCC(O)C1CCN(CCC(CN(C)C(=O)c2ccccc2)c2ccc(Cl)c(Cl)c2)CC1 (stereo unspecified) |  |  |  | 
